From ChEMBL document CHEMBL4316624, “Analyzing the role of cannabinoids as modulators of Wnt/β-catenin signaling pathway for their use in the management of neuropathic pain” (Bioorg Med Chem Lett, 2019)
The source made the active and inactive calls. The calls are words filed in the database; no cut-off is given here.

Columns and labels:
HepG2 [1] = test: Cytotoxicity against human HepG2 cells assessed as reduction in cell viability incubated for 24 to 72 hrs by MTT assay; assay type: cell-based
PC-3 [2] = test: Cytotoxicity against human PC3 cells assessed as reduction in cell viability incubated for 24 to 72 hrs by MTT assay; assay type: cell-based
OVCAR [3] = test: Cytotoxicity against human OVCAR cells assessed as reduction in cell viability incubated for 24 to 72 hrs by MTT assay; assay type: ADME, cell-based
PC-3 [4] = test: Cytotoxicity against human PC3 cells assessed as reduction in cell viability incubated for 72 hrs by MTT assay; assay type: cell-based; details: PC-3, 72 h
HepG2 [5] = test: Inhibition of Wnt/beta-catenin signaling pathway in human HepG2 cells assessed as reduction in TCF-dependent beta-catenin mediated transcription incubated for 24 hrs by Topflash reporter assay; assay type: cell-based
MCF7 [6] = test: Cytotoxicity against human MCF7 cells assessed as reduction in cell viability incubated for 24 to 72 hrs by MTT assay; assay type: cell-based
HCT-116 [7] = test: Cytotoxicity against human HCT116 cells assessed as reduction in cell viability incubated for 72 hrs by MTT assay; assay type: cell-based; details: HCT-116, 72 h
A549 [8] = test: Cytotoxicity against human A549 cells assessed as reduction in cell viability incubated for 72 hrs by MTT assay; assay type: cell-based; details: A549, 72 h
HCT-116 [9] = test: Cytotoxicity against human HCT116 cells assessed as reduction in cell viability incubated for 24 to 72 hrs by MTT assay; assay type: cell-based
MCF7 [10] = test: Cytotoxicity against human MCF7 cells assessed as reduction in cell viability incubated for 72 hrs by MTT assay; assay type: cell-based; details: MCF7, 72 h
SH-SY5Y [11] = test: Cytotoxicity against human SH-SY5Y cells assessed as reduction in cell viability incubated for 24 to 72 hrs by MTT assay; assay type: cell-based
SH-SY5Y [12] = test: Cytotoxicity against human SH-SY5Y cells assessed as reduction in cell viability incubated for 72 hrs by MTT assay; assay type: cell-based
OVCAR [13] = test: Cytotoxicity against human OVCAR cells assessed as reduction in cell viability incubated for 72 hrs by MTT assay; assay type: cell-based
HepG2 [14] = test: Cytotoxicity against human HepG2 cells assessed as reduction in cell viability incubated for 72 hrs by MTT assay; assay type: cell-based; details: HepG2, 72 h
A549 [15] = test: Cytotoxicity against human A549 cells assessed as reduction in cell viability incubated for 24 to 72 hrs by MTT assay; assay type: cell-based
HepG2 [16] = test: Inhibition of Wnt/beta-catenin signaling pathway in human HepG2 cells assessed as reduction in TCF-dependent beta-catenin mediated transcription at 20 to 40 uM incubated for 24 hrs by Topflash reporter assay; assay type: cell-based
HepG2 [17] = test: Inhibition of Wnt/beta-catenin signaling pathway in human HepG2 cells assessed as reduction in TCF-dependent beta-catenin mediated transcription at 5 to 40 uM incubated for 24 hrs by Topflash reporter assay; assay type: cell-based

Row | Compound | Activity (HepG2 [1]) | Activity (PC-3 [2]) | Activity (OVCAR [3]) | IC50 (PC-3 [4]) [µM] | inhibition (HepG2 [5]) | Activity (MCF7 [6]) | IC50 (HCT-116 [7]) [µM] | IC50 (A549 [8]) [µM] | Activity (HCT-116 [9]) | IC50 (MCF7 [10]) [µM] | Activity (SH-SY5Y [11]) | IC50 (SH-SY5Y [12]) [µM] | IC50 (OVCAR [13]) [µM] | IC50 (HepG2 [14]) [µM] | Activity (A549 [15]) | inhibition (HepG2 [16]) | inhibition (HepG2 [17])
1 | C=C(C)[C@@H]1CC[C@H]2O[C@H]2[C@H]1c1c(O)cc(CCCCC)cc1O | Dose-dependent effect | Dose-dependent effect | Dose-dependent effect | 17.6 | Dose-dependent effect | Dose-dependent effect | 15.3 | 45.2 | Dose-dependent effect | 47.2 | Dose-dependent effect | 51 | 56.8 | 53 | Dose-dependent effect |  | 
2 | CCCCCc1cc(O)c2c(c1)OC(C)(CCC=C(C)C)C=C2 (configuration not stated) [CANNABICHROMENE] | Dose-dependent effect | Dose-dependent effect | Dose-dependent effect | 40 |  | Dose-dependent effect | 60 | 60 | Dose-dependent effect | 40 | Dose-dependent effect | 77 | 65 | 60 | Dose-dependent effect | inactive | 
3 | C=C(C)[C@@H]1CCC(C)=C[C@H]1c1c(O)cc(CCCCC)cc1O [CANNABIDIOL] | Dose-dependent effect | Dose-dependent effect | Dose-dependent effect | 12 | Dose-dependent effect | Dose-dependent effect | 18 | 40 | Dose-dependent effect | 55 | Dose-dependent effect | 48 | 50 | 42.8 | Dose-dependent effect |  | 
4 | C=C(C)[C@@H]1CCC(C)=C[C@H]1c1c(O)cc(CCC)cc1O [CANNABIDIVARIN] | Dose-dependent effect | Dose-dependent effect | Dose-dependent effect | 44 | Dose-dependent effect | Dose-dependent effect | 13 | 39 | Dose-dependent effect | 53 | Dose-dependent effect | 55 | 57 | 64 | Dose-dependent effect |  | 
5 | CCCCCc1cc(O)c2c(c1)OC(C)(C)c1ccc(C)cc1-2 [CANNABINOL] | Dose-dependent effect | Dose-dependent effect | Dose-dependent effect | 78 |  | Dose-dependent effect | 80 | 91 | Dose-dependent effect | 81 | Dose-dependent effect | 97 | 77 | 74 | Dose-dependent effect |  | inactive
6 | CCCCCc1cc(O)c2c(c1)OC(C)(C)[C@@H]1CCC(C)=C[C@@H]21 [DRONABINOL] | Dose-dependent effect | Dose-dependent effect | Dose-dependent effect | 65 |  | Dose-dependent effect | 42 | 45 | Dose-dependent effect | 57 | Dose-dependent effect | 50 | 63 | 59 | Dose-dependent effect | inactive | 
7 | CC[C@@H](C(=O)[C@@H](C)[C@@H](O)[C@H](C)[C@@H]1O[C@@H]([C@@H](CC)C(=O)O)CC[C@@H]1C)[C@H]1O[C@]2(C=C[C@@H](O)[C@]3(CC[C@@](C)([C@H]4CC[C@](O)(CC)[C@H](C)O4)O3)O2)[C@H](C)C[C@@H]1C [SALINOMYCIN] |  |  |  |  | Dose-dependent effect |  |  |  |  |  |  |  |  | 24.5 |  |  | 
8 | CCCc1cc(O)c2c(c1)OC(C)(C)[C@@H]1CCC(C)=C[C@@H]21 [TETRAHYDROCANNABIVARIN] | Dose-dependent effect | Dose-dependent effect | Dose-dependent effect | 79 |  | Dose-dependent effect | 83 | 90 | Dose-dependent effect | 80 | Dose-dependent effect | 95 | 75 | 75 | Dose-dependent effect | inactive | 
